Results taken from PMC8710297, “Identification of potent SENP1 inhibitors that inactivate SENP1/JAK2/STAT signaling pathway and overcome platinum drug resistance in ovarian cancer” (Clinical and Translational Medicine, 2021).

Tested on: IGROV1 CR cells
Test: Synergy with cisplatin, SRB cell viability, combination index
Assay type: cell-based
Description: Cell viability was measured by SRB assay. […] Data were represented as mean ± SD (n = 3). (B) Colony formation assay in cells treated as indicated. […] (D) Growth curves of xenograft tumors are shown in (C). Data are represented as means ± SEM, n = 6 mice/group. **p < 0.01. […] (F) IGROV1 CR xenograft tumor growth curve by indicated treatments. Data are represented as means ± SD, n = 6 tumors/group. **p < 0.01. (G) Immunohistochemistry (IHC) staining against pSTAT3 antibodies of tumor samples from four groups of mice (magnification, 200x) (Upper). […]
represented as mean ± SD (n = 3) . ( B) Body we i ght changes of mice in each grou p treated […]
[…] Data are rep res e nted as mea ns ± SD, n= 6 tu mors /g roup . (C) H&E staining of paraffin‐embedded 3‐μm‐th ick tissue sec tions of the tumor, heart, lung , liver and kidney from 4 groups of mice (m agn i f ication , ×200) treated in B.
Cisplatin: sl ightl y […]
means ± SD, n=6 tumors/group . […]
1. Antibodies and re a ge nt s […]
[…] Momordin Ic ( A14773; Adooq Biosc ience) was dissolved in DMSO. Ursolic acid (A10961; Adooq Bioscience) wa s dissolved in DMSO. […]
Cell viability was detected using Sulforhodamine B (SRB) assay as described previously (3).
Absorbance at 51 0 nm was detected using a SpectraMax Re a d e r (Molecular Devices) and an alyzed with SoftMax Analys is Software (Molecular Devices). […]

Compound	synergy with cisplatin to inhibit IGROV1 CR cells
C[C@H]1[C@H](C)CC[C@]2(C(=O)O)CC[C@]3(C)C(=CC[C@@H]4[C@@]5(C)CC[C@H](O)C(C)(C)[C@@H]5CC[C@]43C)[C@H]12 [UA, ursolic acid, reference compound]	great synergy
C[C@H]1[C@H](C)CC[C@]2(C(=O)NCC(=O)N(C)CCO)CC[C@]3(C)C(=CC[C@@H]4[C@@]5(C)CC[C@H](O)C(C)(C)[C@@H]5CC[C@]43C)[C@H]12 [UAMMC9]	great synergy
